Assay results as given in patent publication US20250221410A1, “SUBSTITUTED 2-C-AZINES AND SALTS THEREOF, AND USE THEREOF AS HERBICIDAL ACTIVE SUBSTANCES” (BAYER AKTIENGESELLSCHAFT, priority 2022, published 2025).

Legend:
Assay type in all cases: in vivo
[1] = tested on: DIGSA: Digitaria sanguinalis; assay: Post-emergence herbicidal efficacy at 1280 g/ha, DIGSA; settings: rated visually after about 3 weeks vs untreated controls, 100% = plants have died, 0% = like control plants
Outline: (§1)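 Greenhouse post-emergence spray: one-leaf stage, 2–3 wk after sowing; WP/EC as aqueous suspension/emulsion + 0.5% additive, 600 L/ha water. Visual % activity vs untreated at ~3 wk; 100% = dead, 0% = as control.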

KCHSC: Kochia scoparia [2] = assay: Post-emergence herbicidal efficacy at 1280 g/ha, KCHSC; settings: visual rating about 3 weeks after treatment vs untreated controls
Outline: as §1

[3] = tested on: ABUTH: Abutilon theophrasti; assay: Post-emergence herbicidal efficacy at 1280 g/ha, ABUTH; settings: rated visually after about 3 weeks vs untreated controls, 100% = plants have died, 0% = like control plants
Outline: as §1

SETVI: Setaria viridis [4] = assay: Post-emergence herbicidal efficacy at 1280 g/ha, SETVI; settings: visual rating about 3 weeks after treatment vs untreated controls
Outline: as §1

STEME: Stellaria media [5] = assay: Post-emergence herbicidal efficacy at 1280 g/ha, STEME; settings: visual rating about 3 weeks after treatment vs untreated controls
Outline: as §1

[6] = tested on: AMARE: Amaranthus retroflexus; assay: Pre-emergence herbicide efficacy at 1280 g/ha, AMARE; settings: visual scoring after about 3 weeks vs untreated controls
Outline: (§2)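 Weed seeds were sown and covered with soil in pots, then treated on the soil surface with formulated compound (WP or EC, 0.5% additive, 600 L/ha water). Visual % damage relative to untreated pots was rated about 3 weeks later under greenhouse conditions, 0% meaning no effect and 100% plant death.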

[7] = tested on: DIGSA: Digitaria sanguinalis; assay: Pre-emergence herbicide efficacy at 1280 g/ha, DIGSA; settings: visual scoring after about 3 weeks vs untreated controls
Outline: as §2

[8] = tested on: MATIN: Matricaria inodora; assay: Pre-emergence herbicide efficacy at 1280 g/ha, MATIN; settings: visual scoring after about 3 weeks vs untreated controls
Text: (§3) Seeds of mono- and dicotyledonous weed plants were placed in plastic pots in sandy loam soil (doubly sown with one species each of mono- or dicotyledonous weed plants per pot) and covered with soil. The compounds of the invention, formulated in the form of wettable powders (WP) or as emulsion concentrates (EC), were then applied to the surface of the covering soil as aqueous suspension or emulsion with addition of 0.5% additive at a water application rate of 600 litres per hectare (converted). After the treatment, the pots were placed in a greenhouse and kept under good growth conditions for the test plants. After about 3 weeks, the efficacy of the preparations was scored visually in comparison with untreated controls as percentages. For example, 100% activity=the plants have died, 0% activity=like control plants. Tables C1 to C12 below show the effects of selected compounds of the general formula (I) according to Table 1 on various harmful plants and at an application rate corresponding to 1280 g/ha, which were obtained by the trial procedure specified above.

[9] = tested on: AMARE: Amaranthus retroflexus; assay: Post-emergence herbicidal efficacy at 1280 g/ha, AMARE; settings: rated visually after about 3 weeks vs untreated controls, 100% = plants have died, 0% = like control plants
Outline: as §1

KCHSC: Kochia scoparia [10] = assay: Pre-emergence herbicide efficacy at 1280 g/ha, KCHSC; settings: visual scoring after about 3 weeks vs untreated controls
Outline: as §2

POAAN: Poa annua [11] = assay: Pre-emergence herbicide efficacy at 1280 g/ha, POAAN; settings: visual scoring after about 3 weeks vs untreated controls
Outline: as §2

VERPE: Veronica persica [12] = assay: Post-emergence herbicidal efficacy at 1280 g/ha, VERPE; settings: visual rating about 3 weeks after treatment vs untreated controls
Outline: as §1

[13] = tested on: ECHCG: Echinochloa crus-galli; assay: Pre-emergence herbicide efficacy at 1280 g/ha, ECHCG; settings: visual scoring after about 3 weeks vs untreated controls
Outline: as §2

LOLRI: Lolium rigidum = assay: Pre-emergence herbicide efficacy at 1280 g/ha, LOLRI; settings: visual scoring after about 3 weeks vs untreated controls
Text: as §3

[14] = tested on: ABUTH: Abutilon theophrasti; assay: Pre-emergence herbicide efficacy at 1280 g/ha, ABUTH; settings: visual scoring after about 3 weeks vs untreated controls
Outline: as §2

[15] = tested on: AMARE: Amaranthus retroflexus; assay: Pre-emergence herbicide efficacy at 80 g/ha, AMARE; settings: scored visually after about 3 weeks
Text: (§4) Seeds of monocotyledonous and dicotyledonous weed plants and crop plants were placed in plastic or organic planting pots and covered with soil. The compounds of the invention, formulated in the form of wettable powders (WP) or as emulsion concentrates (EC), were then applied to the surface of the covering soil as aqueous suspension or emulsion with addition of 0.5% additive at a water application rate equivalent to 600 l/ha. After the treatment, the pots were placed in a greenhouse and kept under good growth conditions for the test plants. After about 3 weeks, the efficacy of the preparations was scored visually in comparison with untreated controls as percentages. For example, 100% activity=the plants have died, 0% activity=like control plants. Tables D1 to D12 below show the effects of selected compounds of the general formula (I) according to Table 1 on various harmful plants and an application rate corresponding to 80 g/ha, which were obtained by the experimental procedure mentioned above.

SETVI: Setaria viridis [16] = assay: Pre-emergence herbicide efficacy at 1280 g/ha, SETVI; settings: visual scoring vs untreated controls
Outline: as §2

STEME: Stellaria media [17] = assay: Pre-emergence herbicide efficacy at 1280 g/ha, STEME; settings: visual scoring vs untreated controls
Outline: as §2

POAAN: Poa annua [18] = assay: Post-emergence herbicidal efficacy at 1280 g/ha, POAAN; settings: visual rating about 3 weeks after treatment vs untreated controls
Outline: as §1

VERPE: Veronica persica [19] = assay: Pre-emergence herbicide efficacy at 1280 g/ha, VERPE; settings: visual scoring vs untreated controls
Outline: as §2

VERPE: Veronica persica [20] = assay: Pre-emergence herbicide efficacy at 80 g/ha, VERPE; settings: scored visually after about 3 weeks
Text: as §4

[21] = tested on: AMARE: Amaranthus retroflexus; assay: Post-emergence herbicidal efficacy at 80 g/ha, AMARE; settings: visual rating about 3 weeks after treatment vs untreated controls
Experimental: (§5) Seeds of monocotyledonous and dicotyledonous weeds and crop plants were placed in sandy loam in plastic or organic planting pots, covered with soil and cultivated in a greenhouse under controlled growth conditions. 2 to 3 weeks after sowing, the test plants were treated at the one-leaf stage. The compounds of the invention, formulated in the form of wettable powders (WP) or as emulsion concentrates (EC), were then sprayed onto the green parts of the plants as aqueous suspension or emulsion with addition of 0.5% additive at a water application rate of 600 l/ha (converted). After the test plants had been kept in the greenhouse under optimum growth conditions for about 3 weeks, the activity of the preparations was rated visually in comparison to untreated controls. For example, 100% activity=the plants have died, 0% activity=like control plants. Tables B1 to B10 below show the effects of selected compounds of the general formula (I) according to Table 1 on various harmful plants and an application rate corresponding to 80 g/ha, which were obtained by the experimental procedure mentioned above.

VERPE: Veronica persica [22] = assay: Post-emergence herbicidal efficacy at 80 g/ha, VERPE; settings: visual rating about 3 weeks after treatment vs untreated controls
Experimental: as §5

[23] = tested on: ALOMY: Alopecurus myosuroides; assay: Pre-emergence herbicide efficacy at 1280 g/ha, ALOMY; settings: visual scoring after about 3 weeks vs untreated controls
Text: as §3

[24] = tested on: ECHCG: Echinochloa crus-galli; assay: Post-emergence herbicidal efficacy at 1280 g/ha, ECHCG; settings: rated visually after about 3 weeks vs untreated controls, 100% = plants have died, 0% = like control plants
Outline: as §1

VIOTR: Viola tricolor = assay: Post-emergence herbicidal efficacy at 80 g/ha, VIOTR; settings: visual rating about 3 weeks after treatment vs untreated controls
Experimental: as §5

[25] = tested on: ABUTH: Abutilon theophrasti; assay: Pre-emergence herbicide efficacy at 80 g/ha, ABUTH; settings: scored visually after about 3 weeks
Text: as §4

POLCO = assay: Pre-emergence herbicide efficacy at 80 g/ha, POLCO; settings: Polygonum convolvulus, scored visually after about 3 weeks
Text: as §4

[26] = tested on: DIGSA: Digitaria sanguinalis; assay: Pre-emergence herbicide efficacy at 80 g/ha, DIGSA; settings: scored visually after about 3 weeks
Text: as §4

SETVI: Setaria viridis [27] = assay: Pre-emergence herbicide efficacy at 80 g/ha, SETVI; settings: scored visually after about 3 weeks
Text: as §4

[28] = tested on: MATIN: Matricaria inodora; assay: Pre-emergence herbicide efficacy at 80 g/ha, MATIN; settings: scored visually after about 3 weeks
Text: as §4

SMILES	Post-emergence efficacy at 1280 g/ha against DIGSA in % [1]	Post-emergence efficacy against KCHSC (KCHSC: Kochia scoparia [2])	Post-emergence efficacy at 1280 g/ha against ABUTH in % [3]	Pre-emergence efficacy against AMARE [6]	Pre-emergence efficacy against DIGSA [7]	Pre-emergence efficacy against MATIN [8]	Post-emergence efficacy at 1280 g/ha against AMARE in % [9]	Pre-emergence efficacy against KCHSC (KCHSC: Kochia scoparia [10])	Pre-emergence efficacy against POAAN (POAAN: Poa annua [11])	Post-emergence efficacy against VERPE (VERPE: Veronica persica [12])	Pre-emergence efficacy against ECHCG [13]	Pre-emergence efficacy against ABUTH [14]	Pre-emergence efficacy against AMARE in % [15]	Pre-emergence efficacy against SETVI in % (SETVI: Setaria viridis [16])	Pre-emergence efficacy against STEME in % (STEME: Stellaria media [17])	Pre-emergence efficacy against VERPE in % (VERPE: Veronica persica [19])	Post-emergence efficacy against AMARE [21]	Pre-emergence efficacy against ABUTH in % [25]	Pre-emergence efficacy against POLCO in % (POLCO)	Pre-emergence efficacy against DIGSA in % [26]	other results
N#Cc1cccc(Cc2ncc(Cl)cn2)c1-n1cc(C(F)(F)F)cn1 [Example 1-45]	90%	100%	90%	100%	100%	90%	100%	100%	90%	100%	100%	100%	100%	100%	100%	100%	–	–	–	–	Post-emergence efficacy against SETVI (SETVI: Setaria viridis [4]): 90%; Post-emergence efficacy against STEME (STEME: Stellaria media [5]): 90%; Pre-emergence efficacy against LOLRI (LOLRI: Lolium rigidum): 90%; Post-emergence efficacy against POAAN (POAAN: Poa annua [18]): 90%
Fc1cccc(Oc2ncc(Cl)cn2)c1Cc1ncc(Cl)cn1 [Example 1-51]	–	90%	–	100%	100%	100%	100%	100%	90%	100%	90%	100%	90%	100%	100%	100%	100%	–	–	–	Pre-emergence efficacy against VERPE in % (VERPE: Veronica persica [20]): 80%; Post-emergence efficacy against VERPE (VERPE: Veronica persica [22]): 100%
Clc1cnc(Cc2c(Br)cccc2Oc2ncc(Cl)cn2)nc1 [Example 1-53]	90%	100%	100%	100%	100%	100%	100%	100%	100%	100%	100%	100%	–	100%	100%	100%	–	–	–	–	Post-emergence efficacy against SETVI (SETVI: Setaria viridis [4]): 100%; Post-emergence efficacy against STEME (STEME: Stellaria media [5]): 100%; Pre-emergence efficacy against ALOMY [23]: 100%; Pre-emergence efficacy against LOLRI (LOLRI: Lolium rigidum): 100%; Post-emergence efficacy at 1280 g/ha against ECHCG in % [24]: 100%; Post-emergence efficacy against POAAN (POAAN: Poa annua [18]): 100%
Fc1cnc(Oc2cccc(Cl)c2Cc2ncc(Cl)cn2)nc1 [Example 1-57]	90%	90%	90%	100%	100%	100%	90%	100%	100%	90%	100%	100%	–	100%	100%	100%	–	–	–	–	Post-emergence efficacy against SETVI (SETVI: Setaria viridis [4]): 90%; Post-emergence efficacy against STEME (STEME: Stellaria media [5]): 90%; Pre-emergence efficacy against ALOMY [23]: 100%; Pre-emergence efficacy against LOLRI (LOLRI: Lolium rigidum): 100%; Post-emergence efficacy at 1280 g/ha against ECHCG in % [24]: 90%; Post-emergence efficacy against POAAN (POAAN: Poa annua [18]): 90%
Fc1ccc(Oc2ccccc2Cc2ncc(F)cn2)cc1 [Example 1-67]	–	–	–	–	–	–	–	–	–	–	–	–	90%	–	–	–	100%	100%	–	–	Post-emergence efficacy against VIOTR (VIOTR: Viola tricolor): 100%; Post-emergence efficacy against VERPE (VERPE: Veronica persica [22]): 80%
Fc1cnc(Cc2ccccc2-c2cc(C(F)F)no2)nc1 [Example 1-135]	–	–	–	–	–	–	–	–	–	–	–	–	100%	–	–	–	100%	95%	90%	–	Pre-emergence efficacy against VERPE in % (VERPE: Veronica persica [20]): 95%
Fc1cnc(Oc2c(F)cccc2Cc2ncc(Cl)cn2)nc1 [Example 1-152]	–	–	–	–	–	–	–	–	–	–	–	–	100%	–	–	–	90%	80%	90%	90%	Pre-emergence efficacy against SETVI in % (SETVI: Setaria viridis [27]): 80%
Fc1cnc(Cc2cccc(Cl)c2Oc2ncc(F)cn2)nc1 [Example 1-156]	–	–	–	–	–	–	–	–	–	–	–	–	100%	–	–	–	80%	90%	80%	90%	Pre-emergence efficacy against MATIN in % [28]: 80%
Cc1cccc(Cc2ncc(Cl)cn2)c1Oc1ncc(Cl)cn1 [Example 1-166]	–	–	–	–	–	–	–	–	–	–	–	–	95%	–	–	–	–	–	90%	100%	Pre-emergence efficacy against SETVI in % (SETVI: Setaria viridis [27]): 80%
Fc1ccc(Cc2c(F)cccc2Oc2ncc(Cl)cn2)nc1 [Example 1-194]	–	–	–	–	–	–	–	–	–	–	–	–	100%	–	–	–	98%	–	90%	90%	Pre-emergence efficacy against VERPE in % (VERPE: Veronica persica [20]): 90%; Pre-emergence efficacy against SETVI in % (SETVI: Setaria viridis [27]): 100%
